Results on twelve molecules are retold here after patent US20230133630A1, “Oral Care Compositions Comprising Dicarboxylic Acid” (The Procter & Gamble Company, priority 2021, published 2023).

What all share (assay type): cell-based
For experiment [1], the system named is human gingival keratinocytes (Gie-No3-B11), S. minnesota LPS. The experiment is described as follows: Infection of human gingival keratinocytes by fluorescent S. minnesota LPS. On the procedure: (§1) One method to assess the potential of dicarboxylic acids to reduce gum disease and improve health was to assess the infection potential of gingival keratinocytes. In this model, human gingival keratinocytes (Gie-No3-B11, purchased from Creative Bioarray, Shirley, N.Y.) were maintained in a 37° C. incubator with 5% CO2. Cells were seeded in 100 μL cell suspension to each well (2K cells/well). Cells were treated 24 hours after seeding. Growth medium alone or growth medium with solvent vehicle was used as a negative control. Positive controls are either fluorescent E. coli LPS, or fluorescent S. minnesota LPS (https://corporate.thermofisher.com/us/en/index.html), fluorescence-label P. gingivalis outer membrane vesicles (OMV) with or without medium or solvent vehicle. P. gingivalis OMV was isolated following procedures described by Cecil et al. 2016 (Jessica D. Cecil, Neil M. O'Brien-Simpson, Jason C. Lenzo, James A. Holden, Yu-Yen Chen, William Singleton, Katelyn Gause, Yan Yan, Frank Caruso, and Eric C. Reynolds. Differential Responses of Pattern Recognition Receptors to Outer Membrane Vesicles of Three Periodontal Pathogens. iPLoS One. 2016; 11(4): e0151967). The OMV was stained with Lipophilic Tracer DiO following manufacturer's instruction (https://corporate.thermofisher.com/us/en/index.html). Compounds were dissolved in water and diluted in culture medium (all dilutions are deep yellow, or very acidic). All compounds and fluorescent LPS or OMV were added to cells at the same time. It is worth mentioning that cell culture medium changed immediately following adding the compounds from pink (pH7-7.4) to deep yellow (acidic). Images were taken in four sites in each well at a 3-hour interval over 48 to 120 hours in Incucyte® Live-Cell Analysis Systems (https://www.sartorius.com/en/products/live-cell-imaging-analysis/live-cell-analysis-instruments#id-789214). Data were processed and analyzed using R-programs.

For experiment [2], the system named is human gingival keratinocytes (Gie-No3-B11), P. gingivalis OMV. Description: Infection of human gingival keratinocytes by fluorescence-label P. gingivalis outer membrane vesicles (OMV). To be noted: for inhibition at 100000 µM: concentration 100 mM. On the procedure:
as §1

In experiment [3] the test system is human gingival keratinocytes (Gie-No3-B11), E. coli LPS. Description: Infection of human gingival keratinocytes by fluorescent E. coli LPS. On the procedure:
as §1

Setting [4] is: Homo sapiens, Keratinocyte, concentration 125 μM.
[5] abbreviates: Homo sapiens, Keratinocyte, concentration 5 mM.
[6] abbreviates: Homo sapiens, Keratinocyte, concentration 11.11 mM.
Where [7] appears, read: Homo sapiens, Keratinocyte, concentration 7.5 mM.

As usually defined, the inhibition is the percentage by which the read-out fell short of the control.

Structures are written as SMILES.

Regarding `O=C(O)C(=O)O` [Oxalic_acid, oxalic acid], the inhibition at 125 µM in experiment [1] (setting [4]) was found to be 22.5%; in experiment [3] (setting [4]) it was 38.2%. Besides, the inhibition at 100000 µM in experiment [2] (Homo sapiens, Keratinocyte) came to 32.8%.

For the molecule `O.O=C([O-])C(=O)[O-].[K+].[K+]` [Potassium_oxalate_monohydrate, Potassium Oxalate Monohydrate], the Inhibition % turned out to be 41.5% in experiment [1] (concentration 125 μM) and 21.5% in experiment [3] (concentration 125 μM).

`O=C(O)/C=C\C(=O)O` [Maleic_acid, maleic acid] registered an inhibition at 3000 µM in experiment [1] (Homo sapiens, Keratinocyte, concentration 3 mM) of 73.8%. In addition, testing at 100000 µM in experiment [2] (Homo sapiens, Keratinocyte) gave an inhibition of 83.3%. The molecule further returned an inhibition at 5000 µM in experiment [3] (setting [5]) of 63.8%.

With `O=C(O)CCC(=O)O` [Succinic_acid, succinic acid], testing at 1000 µM in experiment [1] (Homo sapiens, Keratinocyte, concentration 1 mM) gave an inhibition of 42.3%. In addition, the inhibition at 2000 µM in experiment [2] (Homo sapiens, Keratinocyte, concentration 2 mM) is 73%.

On to `O=C(O)[C@H](O)[C@@H](O)C(=O)O` [L_+_Tartaric_acid, L-tartaric acid], for which the Inhibition % in experiment [1] (concentration 10 mM) is listed as 52.1%; in experiment [2] (concentration 2.5 mM), 73.6%.

On to `O=C(O)C(O)C(O)C(=O)O` (stereo not drawn) [DL_Tartaric_acid, DL tartaric acid], for which the Inhibition % in experiment [1] (concentration 1 mM) was 26.4%; in experiment [2] (concentration 1 mM) it was 57.7%.

`O=C(O)CC(=O)O` [Malonic_acid, malonic acid] came in with an inhibition at 11110 µM in experiment [2] (setting [6]) of 69.3%. Besides, in experiment [3] (setting [5]), at 5000 µM the inhibition was 35.9%.

Regarding `O=C(O)C(=O)C(=O)O` [Sodium_mesoxalate_monohydrate, Sodium Mesoxalate Monohydrate], at 5000 µM the inhibition in experiment [2] (setting [5]) was 44.3%.

In experiment [1] (Homo sapiens, Keratinocyte, concentration 2.5 mM), `CC(C(=O)O)C(=O)O` [Methyl_malonic_acid, methylmalonic acid] displayed an inhibition at 2500 µM of 28.7%. Testing at 11110 µM in experiment [2] (setting [6]) gave an inhibition of 63.6%. For the same molecule, testing at 5000 µM in experiment [3] (setting [5]) gave an inhibition of 30.7%.

`O=C(O)CC(O)C(=O)O` (stereo not drawn) [DL_Maleic_acid]: the Inhibition % is on record as 59.9% in experiment [1] (concentration 7.5 mM), 62.2% in experiment [2] (concentration 11.11 mM) and 36.3% in experiment [3] (concentration 5 mM).

On to `O=C(O)/C=C/C(=O)O` [Fumaric_acid, fumaric acid], for which the results for the inhibition at 7500 µM in experiment [1] (setting [7]) and in experiment [3] (setting [7]) were 71.9% and 31%, respectively. In addition, in experiment [2] (Homo sapiens, Keratinocyte, concentration 33.33 mM), testing at 33330 µM gave an inhibition of 53.1%.

`CC(C)(C(=O)O)C(=O)O` [Dimethylmalonic_Acid, dimethylmalonic acid] gave an inhibition at 7500 µM in experiment [1] (setting [7]) of 54.5%. In experiment [2] (setting [6]), this molecule showed an inhibition at 11110 µM of 81.3%. In addition, at 5000 µM the inhibition in experiment [3] (setting [5]) was 33.8%.
